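Cells were grown in 96-well plates and exposed to each compound for 48 hours at five concentrations; endpoints were interpolated linearly between bracketing concentrations, or set to the highest concentration if not reached. The concentration for 50% growth inhibition is given as GI50.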 Calls of active or inactive are those of the source. Cut-off read from the data, not from the text of the source: active = GI50 up to about 1.1 µM and inactive = higher.
Columns and labels:
Experiment in all cases: inhibition of tumour cell growth, NCI panel, 48 h
[1] = system: SW-620
[2] = system: A549
[3] = system: DU-145
[4] = system: OVCAR-3
[5] = system: SK-MEL-28
[6] = system: MDA-N
[7] = system: RXF 393
[8] = system: U-251
[9] = system: OVCAR-5
[10] = system: HCT-15
[11] = system: SF-268
[12] = system: A498
[13] = system: PC-3
[14] = system: SF-295
[15] = system: SN12C
[16] = system: EKVX
[17] = system: UO-31
[18] = system: MCF7
[19] = system: OVCAR-4
[20] = system: HOP-92
[21] = system: SR
[22] = system: NCI-H226
[23] = system: 786-0
[24] = system: HL-60
[25] = system: KM12
[26] = system: LOX IMVI
[27] = system: CCRF-CEM
[28] = system: MDA-MB-435
[29] = system: OVCAR-8
[30] = system: SK-MEL-5
[31] = system: UACC-257
[32] = system: HT-29
[33] = system: UACC-62
[34] = system: MOLT-4
[35] = system: NCI-H522
[36] = system: COLO 205
[37] = system: M14
[38] = system: TK-10
[39] = system: K562
[40] = system: Hs-578T
[41] = system: SNB-75
[42] = system: CAKI-1
[43] = system: IGROV-1
[44] = system: T47D
[45] = system: MDA-MB-231
[46] = system: HOP-62
[47] = system: SK-MEL-2
[48] = system: HCT-116
[49] = system: Malme-3M
[50] = system: SF-539
[51] = system: ACHN
[52] = system: NCI-H23
[53] = system: SNB-19
[54] = system: RPMI-8226
[55] = system: HCC 2998
[56] = system: NCI/ADR-RES
[57] = system: NCI-H460
[58] = system: SK-OV-3

**Q.** For `CC[C@H](CCCCC1CC[C@@H]2CC(=O)C[C@H]12)OC` (stereo partly drawn), which GI50 [1] is on record?
**A.** Its GI50 is > 100 µM (inactive).

**Q.** And the GI50 [2]?
**A.** The GI50 was > 100 µM (inactive).

**Q.** What about the GI50 [3] of the same compound?
**A.** Its GI50 is > 100 µM (inactive).

**Q.** What about the GI50 [4] of the same compound?
**A.** The GI50 was > 100 µM (inactive).

**Q.** What about the GI50 [5] of the same compound?
**A.** The GI50 was > 100 µM (inactive).

**Q.** What about the GI50 [6] of the same compound?
**A.** The GI50 was > 100 µM (inactive).

**Q.** And the GI50 [7]?
**A.** The GI50 was > 100 µM (inactive).

**Q.** And the GI50 [8]?
**A.** The GI50 was > 100 µM (inactive).

**Q.** What about the GI50 [9] of the same compound?
**A.** Its GI50 is > 100 µM (inactive).

**Q.** And the GI50 [10]?
**A.** Its GI50 is > 100 µM.

**Q.** What about the GI50 [11] of the same compound?
**A.** The GI50 was > 100 µM (inactive).

**Q.** And the GI50 [12]?
**A.** Its GI50 is > 100 µM (inactive).

**Q.** What about the GI50 [13] of the same compound?
**A.** Its GI50 is > 100 µM (inactive).

**Q.** What about the GI50 [14] of the same compound?
**A.** The GI50 was > 100 µM (inactive).

**Q.** What about the GI50 [15] of the same compound?
**A.** Its GI50 is > 100 µM (inactive).

**Q.** And the GI50 [16]?
**A.** The GI50 was > 100 µM (inactive).

**Q.** And the GI50 [17]?
**A.** Its GI50 is 93.8 µM (inactive).

**Q.** What about the GI50 [18] of the same compound?
**A.** Its GI50 is > 100 µM (inactive).

**Q.** What does the source list for `O=C1CCCC1C(O)(C(F)(F)F)C(F)(F)F` (stereo not drawn)?
**A.** GI50 [19]: > 100 µM (inactive); GI50 [1]: > 100 µM (inactive); GI50 [20]: > 100 µM (inactive); GI50 [2]: > 100 µM (inactive); GI50 [3]: > 100 µM (inactive); GI50 [4]: > 100 µM (inactive); GI50 [21]: > 100 µM (inactive); GI50 [22]: > 100 µM (inactive); GI50 [23]: > 100 µM (inactive); GI50 [5]: > 100 µM (inactive); GI50 [24]: > 100 µM (inactive); GI50 [25]: > 100 µM (inactive); GI50 [26]: > 100 µM (inactive); GI50 [27]: > 100 µM (inactive); GI50 [28]: > 100 µM (inactive); GI50 [29]: > 100 µM (inactive); GI50 [30]: > 100 µM (inactive); GI50 [31]: > 100 µM (inactive); GI50 [32]: > 100 µM (inactive); GI50 [33]: > 100 µM (inactive); GI50 [6]: > 100 µM (inactive); GI50 [34]: > 100 µM (inactive); GI50 [35]: > 100 µM (inactive); GI50 [7]: > 100 µM (inactive); GI50 [36]: > 100 µM (inactive); GI50 [37]: > 100 µM (inactive); GI50 [38]: > 100 µM (inactive); GI50 [8]: > 100 µM (inactive); GI50 [39]: > 100 µM (inactive); GI50 [40]: > 100 µM (inactive); GI50 [41]: > 100 µM (inactive); GI50 [42]: > 100 µM (inactive); GI50 [43]: > 100 µM (inactive); GI50 [44]: > 100 µM (inactive); GI50 [9]: > 100 µM (inactive); GI50 [45]: > 100 µM (inactive); GI50 [10]: > 100 µM; GI50 [46]: > 100 µM (inactive); GI50 [11]: > 100 µM (inactive); GI50 [47]: > 100 µM (inactive); GI50 [48]: > 100 µM (inactive); GI50 [12]: > 100 µM (inactive); GI50 [49]: > 100 µM (inactive); GI50 [13]: > 100 µM (inactive); GI50 [14]: > 100 µM (inactive); GI50 [15]: > 100 µM (inactive); GI50 [50]: > 100 µM (inactive); GI50 [51]: > 100 µM (inactive); GI50 [52]: > 100 µM (inactive); GI50 [53]: > 100 µM (inactive); GI50 [16]: > 100 µM (inactive); GI50 [54]: > 100 µM (inactive); GI50 [55]: > 100 µM (inactive); GI50 [17]: > 100 µM (inactive); GI50 [56]: > 100 µM (inactive); GI50 [18]: > 100 µM (inactive); GI50 [57]: > 100 µM (inactive)

**Q.** What does the source list for `COc1ccc(C(CC(=O)c2ccccc2)C(=O)c2ccc3c(c2)OCO3)cc1` (stereo not drawn)?
**A.** GI50 [19]: > 10 µM (inactive); GI50 [1]: > 100 µM (inactive); GI50 [2]: > 100 µM (inactive); GI50 [3]: > 100 µM (inactive); GI50 [21]: > 100 µM (inactive); GI50 [22]: > 100 µM (inactive); GI50 [23]: > 100 µM (inactive); GI50 [5]: > 100 µM (inactive); GI50 [58]: > 100 µM (inactive); GI50 [24]: > 100 µM (inactive); GI50 [25]: > 100 µM (inactive); GI50 [27]: > 100 µM (inactive); GI50 [28]: > 100 µM (inactive); GI50 [29]: > 100 µM (inactive); GI50 [30]: > 100 µM (inactive); GI50 [31]: > 100 µM (inactive); GI50 [33]: > 100 µM (inactive); GI50 [6]: > 100 µM (inactive); GI50 [34]: > 100 µM (inactive); GI50 [36]: > 100 µM (inactive); GI50 [37]: > 100 µM (inactive); GI50 [38]: > 100 µM (inactive); GI50 [8]: > 100 µM (inactive); GI50 [39]: > 100 µM (inactive); GI50 [41]: > 100 µM (inactive); GI50 [42]: > 100 µM (inactive); GI50 [43]: > 100 µM (inactive); GI50 [44]: 77.3 µM (inactive); GI50 [45]: > 100 µM (inactive); GI50 [10]: > 100 µM; GI50 [46]: > 100 µM (inactive); GI50 [11]: > 100 µM (inactive); GI50 [47]: > 100 µM (inactive); GI50 [12]: > 100 µM (inactive); GI50 [49]: 79.3 µM (inactive); GI50 [13]: > 100 µM (inactive); GI50 [14]: > 100 µM (inactive); GI50 [15]: > 100 µM (inactive); GI50 [51]: > 100 µM (inactive); GI50 [52]: > 100 µM (inactive); GI50 [53]: > 100 µM (inactive); GI50 [16]: > 100 µM (inactive); GI50 [54]: > 100 µM (inactive); GI50 [55]: > 100 µM (inactive); GI50 [17]: > 100 µM (inactive); GI50 [56]: > 100 µM (inactive); GI50 [18]: > 100 µM (inactive); GI50 [57]: > 100 µM (inactive)
